{"source": "patent US12576129B2", "about": "“Anthelmintic compositions and methods” (priority 2016, dated 2026)", "key": {"BaCC [1]": {"system": "BaCC", "experiment": "Carvacrol wash protocols: alive bacteria (CFU) after treatment", "format": "cell-based, Bacillus thuringiensis", "description": "To reduce carvacrol residue in the final product, we tested different strategies. In order to reduce the carvacrol residue in the final IBaCC product, first the total amount of carvacrol was reduced by concentrating the cultures before carvacrol treatment. The cultures were centrifuged, and the pellets were re-suspended in sterile distilled water in half or one fourth of the original culture volume. Then, carvacrol was added at 1 mg/mL concentration. Second, carvacrol was removed from the culture by increasing the solubility of carvacrol in the water phase. […] As such, 5% and 15% of ethanol water was used in the washing steps following the IBaCC incubation with carvacrol. Another strategy employed was to increase the volume of distilled water during the washing steps to remove more carvacrol per wash step (for instance, only 25 mg carvacrol can be solubilized with 20 mL of water while 50 mg carvacrol can be solubilized with 40 mL of water.) Lastly, since the temperature affects carvacrol solubility, the incubation and washing steps were carried out at room temperature instead of 4° C. The positive control sample was treated with 1 mg/mL carvacrol without concentrating the culture prior to carvacrol treatment, incubated at 4° C., washed with 1M NaCl once and distilled water twice using 1:1 culture to wash volume ratio. No terpene control sample received water instead of carvacrol, but the incubation and washing steps were carried out in the same manner as the positive control. BaCC culture was grown in 3× LB for 48 hours, and 40 mL of BaCC culture was used for each condition. After washes, the culture was concentrated 20 times. Samples were plated for CFU/mL analysis as described earlier, and carvacrol residue was assessed by HPLC as follows."}, "BaCC [2]": {"system": "BaCC", "experiment": "Time to kill: CFU/mL of BaCC after terpene treatment", "format": "cell-based, Bacillus thuringiensis", "description": "In order to determine which terpene kills BaCC in the shortest amount of time, we incubated 5 mL of BaCC culture with three terpenes at 1 mg/mL at 4° C. for 1, 2, 3 and 5 hours. No terpene control and no bacteria controls were carried out simultaneously. After incubation with terpenes, samples were centrifuged and the pellets were washed with 5 mL of 1M NaCl once and 5 mL of sterile distilled water twice in order to remove the terpenes. The pellets were re-suspended in the original volume and plated on LB agar with kanamycin and erythromycin. Plates were incubated overnight at 30° C.; the next day, the number of colonies on the plates were enumerated and colony forming units (CFU)/mL calculated.\nTo assess terpene killing at shorter time points, BaCC culture was grown in 3× LB for 48 h as described above and 60 ml of cultures were aliquoted in sterile tubes. Carvacrol and geraniol were added to the final concentration of 1 mg/mL, and the tubes were placed on a rotator at 4° C. for 15 minutes. The negative control was prepared using sterile water instead of terpenes. At the end of the incubation period, the tubes were centrifuged at 2000× g for 10 minutes and pellets washed with 60 ml of 1 M NaCl once and washed with 60 mL of sterile distilled water twice. Pellets were re-suspended in 1.2 mL of sterile distilled water to concentrate the culture 50 times. Concentrated terpene treated and control samples were plated on LB agar plates containing kanamycin and erythromycin and incubated overnight at 30° C. The number of colonies were counted the next day and CFU/mL calculated for each time point."}, "BaCC [3]": {"system": "BaCC", "experiment": "Minimum inhibitory concentration of terpenes against BaCC (broth microdilution)", "format": "cell-based", "settings": "Bacillus thuringiensis; 24 h at 30° C. in LB; no absorbance increase; read-out: MIC μg/mL (100)", "description": "Three terpenes were tested against BaCC including: carvacrol, geraniol and farnesol, by using the broth microdilution method as described in Agaisse and Lereclus, J. Bacteriol. 176, 4734-4741, 1994 and Agaisse and Lereclus, Mol. Microbiol. 13, 97-107, 1994 with some modifications. Briefly, BaCC from a single colony was grown in 5 mL of LB medium supplemented with 10 μg/mL erythromycin+200 μg/mL kanamycin overnight (O.D. (600) of 4.8, 2.3×10^7 CFU/mL). Terpene solutions were prepared at 1 mg/mL in LB. One hundred μL of two-fold serial dilutions of each terpene in LB were prepared in 96-well microtiter plates over the range of 1000 to 3.9 μg/mL in triplicate. LB without terpenes was used as a negative control. BaCC culture was diluted 100 times, and 100 μL of BaCC culture was added to the wells. Absorbance at 600 nm was recorded before and after the incubation to monitor bacterial growth. The MICs were determined after incubation for 24 h at 30° C. without shaking."}, "E. coli": {"system": "E. coli", "experiment": "CFU of E. coli after carvacrol treatment", "format": "cell-based, Escherichia coli", "settings": "1 mg/mL carvacrol for 15 minutes", "description": "Bioactivity of carvacrol-treated Crystal-E. coli on C. elegans. Escherichia coli cells expressing nematicidal Crystal protein or empty vector were treated for 15 minutes with 1 mg/mL carvacrol. The cells were washed in sterile water 3 times. CFUs were determined for untreated and carvacrol-treated cells by serial dilution plating on LB plates. In addition, C. elegans nematode L4 hermaphrodites were fed overnight 1.8 ×10^7 cells/mL of E. coli untreated or carvacrol-treated, Crystal expressing and empty vector (4 conditions) at 25° C. for 16 hr."}, "[4]": {"settings": "cited from earlier work"}, "[5]": {"settings": "Concentrated 2X = 20 ml before adding carvacrol (1 mg/mL)"}, "[6]": {"settings": "Concentrated 4X = 10 ml before adding carvacrol (1 mg/mL)"}, "[7]": {"settings": "Control: 4C, no concentration, 1:1 culture to wash volume (1 mg/mL carvacrol)"}, "[8]": {"settings": "Incubated and washed at room temperature"}, "[9]": {"settings": "Wash volume increased 2X (e.g., 40 ml wash for 20 ml culture)"}, "[10]": {"settings": "Washes were done with 5% ethanol in water"}, "[11]": {"settings": "Washes were done with 15% ethanol in water"}}, "note": "Where two headings read alike, the source gives them in different places.", "data": [{"smiles": "Cc1ccc(C(C)C)cc1O", "note": "[Carvacrol, carvacrol]", "values": [{"measurement": "Number of alive bacteria in 1 ml 20X concentrate", "setting": "BaCC [1]; [5]", "result": 0}, {"measurement": "Number of alive bacteria in 1 ml culture", "setting": "BaCC [1]; [5]", "result": 0}, {"measurement": "Number of alive bacteria in 1 ml 20X concentrate", "setting": "BaCC [1]; [6]", "result": 0}, {"measurement": "Number of alive bacteria in 1 ml culture", "setting": "BaCC [1]; [6]", "result": 0}, {"measurement": "Number of alive bacteria in 1 ml 20X concentrate", "setting": "BaCC [1]; [7]", "result": 0}, {"measurement": "Number of alive bacteria in 1 ml culture", "setting": "BaCC [1]; [7]", "result": 0}, {"measurement": "Number of alive bacteria in 1 ml 20X concentrate", "setting": "BaCC [1]; [8]", "result": 0}, {"measurement": "Number of alive bacteria in 1 ml culture", "setting": "BaCC [1]; [8]", "result": 0}, {"measurement": "Number of alive bacteria in 1 ml 20X concentrate", "setting": "BaCC [1]; [9]", "result": 140}, {"measurement": "Number of alive bacteria in 1 ml culture", "setting": "BaCC [1]; [9]", "result": 7}, {"measurement": "Number of alive bacteria in 1 ml 20X concentrate", "setting": "BaCC [1]; [10]", "result": 0}, {"measurement": "Number of alive bacteria in 1 ml culture", "setting": "BaCC [1]; [10]", "result": 0}, {"measurement": "Number of alive bacteria in 1 ml 20X concentrate", "setting": "BaCC [1]; [11]", "result": 160}, {"measurement": "Number of alive bacteria in 1 ml culture", "setting": "BaCC [1]; [11]", "result": 8}, {"measurement": "CFU/ml (1 mg/mL terpene treatment for time indicated)", "setting": "BaCC [2]; 15 min at 4° C., culture concentrated 50 times (50X conc.) before plating", "result": 0, "unit": "CFU/ml"}, {"measurement": "CFU/ml (1 mg/mL terpene treatment for time indicated)", "setting": "BaCC [2]; 1 h at 4° C.", "result": 0, "unit": "CFU/ml"}, {"measurement": "CFU/ml (1 mg/mL terpene treatment for time indicated)", "setting": "BaCC [2]; 3 h at 4° C.", "result": 0, "unit": "CFU/ml"}, {"measurement": "CFU/ml (1 mg/mL terpene treatment for time indicated)", "setting": "BaCC [2]; 5 h at 4° C.", "result": 0, "unit": "CFU/ml"}, {"measurement": "killing of BaCC (spo0A- cells expressing Cry5B)", "setting": "BaCC [2]; carvacrol treatment", "result": "complete killing of the Bacilli"}, {"measurement": "comparison of antimicrobial efficiency among the 3 terpenes", "setting": "BaCC [2]; carvacrol, geraniol, farnesol against BaCC", "result": "most efficient, killing the quickest and at the lowest concentration"}, {"measurement": "CFU/ml (1 mg/mL terpene treatment for time indicated)", "setting": "BaCC [2]; time 0", "result": "2.31 × 10^7 CFU/ml"}, {"measurement": "MIC", "setting": "BaCC [3]", "result": 125, "unit": "µg/mL"}, {"measurement": "killing of E. coli (CFUs)", "setting": "E. coli", "result": "effectively killed the E. coli"}, {"measurement": "log P octanol/water", "setting": "[4]", "result": 3.64}, {"measurement": "amount that can be solubilized", "setting": "[4]; with 20 mL of water", "result": 25, "unit": "mg"}, {"measurement": "amount that can be solubilized", "setting": "[4]; with 40 mL of water", "result": 50, "unit": "mg"}]}]}
